≈ marks a conversion by molar mass, not a printed value.
Conditions: buffer; pH 7.4; 200.0 µM
CCOC(=O)CNC(=O)Cn1cnc2c(oc3ccccc32)c1=O showed a solubility kinetic of over 49.4 µg/mL. For O=C(NCCc1ccc(F)cc1)Nc1ccc([N+](=O)[O-])cc1, the solubility kinetic was 4.9 µg/mL (≈ 16.2 µM). Compound FC(F)Sc1nc2ccccc2[nH]1 has a solubility kinetic of over 30 µg/mL. Compound Cc1ccc2[nH]c(=O)c(CN(C(=O)c3cccc([N+](=O)[O-])c3)C(C)C)cc2c1 has a solubility kinetic of 2.6 µg/mL (≈ 6.85 µM). In the case of CS(=O)(=O)N1CCC(C(=O)Nc2ccc(F)c(Cl)c2)CC1, the solubility kinetic is reported as over 50.2 µg/mL. With Cc1cc2oc(=O)cc(C)c2cc1NC(=O)CCl the solubility kinetic was 39.4 µg/mL (≈ 148 µM). Work on COc1cccc(-c2nc(NC3CCCC3)c3ccccc3n2)c1O yielded a solubility kinetic of under 0.2 µg/mL. Work on COc1ccccc1CNC(=O)Cc1c[nH]c2ccccc12 yielded a solubility kinetic of over 44.2 µg/mL. In the case of COc1ccc(S(=O)(=O)Nc2cccnc2)cc1, the solubility kinetic is reported as over 39.6 µg/mL. Work on N#Cc1c2c(c(NCCOCCO)n3c1nc1ccccc13)CCCC2 yielded a solubility kinetic of 27 µg/mL (≈ 77 µM). COc1ccc(OCCn2cnc(Cl)c2Cl)cc1 showed a solubility kinetic of 41.1 µg/mL (≈ 143 µM). Compound CCCCN1C(=O)NC(NC(=O)C2CC2)(C(F)(F)F)C1=O (stereo not given) has a solubility kinetic of over 46.1 µg/mL. O=C(C(Cl)Cl)N1CCN(Cc2ccc3c(c2)OCO3)CC1 showed a solubility kinetic of 42.6 µg/mL (≈ 129 µM). CCCNC(=O)c1oc2ccc3c(c2c1C)C(O)CC(C)(C)O3 (stereo not given) gave a solubility kinetic of over 47.6 µg/mL. Work on N#Cc1ccc(-c2ccc(OCC3CNC(=O)O3)cc2)cc1 (stereo not given) yielded a solubility kinetic of 11.3 µg/mL (≈ 38.4 µM). In the case of COCC(=O)Nc1ccc(OC)c(Cl)c1, the solubility kinetic is reported as 33.8 µg/mL (≈ 147 µM). Compound O=C(NCC(=O)N1CCCC1)c1ccc(Br)cc1 has a solubility kinetic of over 46.7 µg/mL. In the case of CC(=O)Nc1ccc(N=Cc2c(O)ccc3ccccc23)cc1, the solubility kinetic is reported as 7.6 µg/mL (≈ 25 µM). CCCc1nc2c(=O)n(C)c(=O)nc-2n(C)n1 gave a solubility kinetic of over 35.3 µg/mL. In the case of Nc1nc2cc(S(=O)(=O)N3CCOCC3)ccc2o1, the solubility kinetic is reported as over 42.5 µg/mL. With O=C(O)CC(NC(=O)C12CC3CC(CC(C3)C1)C2)c1cccc([N+](=O)[O-])c1 (stereo not given) the solubility kinetic was over 55.9 µg/mL. Cn1c(SCC(=O)NC2CC2)nnc1-c1cccs1 gave a solubility kinetic of over 44.2 µg/mL. In the case of O=S(=O)(c1ccc(-c2ccno2)s1)N1CCCCC1, the solubility kinetic is reported as 8.1 µg/mL (≈ 27.1 µM). Work on CCOc1cc(N2CCOCC2)c(OCC)cc1NC(=O)C(C)(C)C yielded a solubility kinetic of over 52.6 µg/mL. O=C(O)c1cncc(C#Cc2ccccc2)c1 gave a solubility kinetic of over 33.5 µg/mL. For COC(=O)CNC(=O)COC(=O)c1cc(SC)ccc1Cl, the solubility kinetic was over 49.8 µg/mL. In the case of O=C(CSc1ccccc1F)NCC(c1cccs1)N1CCOCC1 (stereo not given), the solubility kinetic is reported as over 57.1 µg/mL. With O=C(Cc1c(F)cccc1Cl)NC1CCN(Cc2ccccc2)CC1 the solubility kinetic was 50.5 µg/mL (≈ 140 µM). Compound Cc1cc(C(=O)OCC(=O)NC(C)c2ccc(F)cc2)c(C)o1 (stereo not given) has a solubility kinetic of 11.4 µg/mL (≈ 35.7 µM). For Cn1c(=O)[nH]c(=O)c2c1nc(N1CCCC1)n2CCO, the solubility kinetic was over 41.9 µg/mL. In the case of Cc1cnc(NC(=O)Cc2ccc(Br)cc2)s1, the solubility kinetic is reported as under 0.3 µg/mL. For CN(C)C=NC(=O)c1[nH]c2ccc(Cl)cc2c1-c1ccccc1, the solubility kinetic was 15.2 µg/mL (≈ 46.7 µM). With O=C(Nc1ccc(N2CCOCC2)cc1)c1ccc2ncsc2c1 the solubility kinetic was 10.1 µg/mL (≈ 29.8 µM). CC(C)c1ccc(NC(=S)NN2CCN(C)CC2)cc1 gave a solubility kinetic of over 43.9 µg/mL. With Cl.OCCN1CCN(c2nc3ccccc3nc2-c2ccccc2)CC1 the solubility kinetic was over 55.6 µg/mL. COc1ccc(/C=C/C(=O)OCC(=O)NC2CCCC(C)C2C)c(OC)c1 (stereo not given) gave a solubility kinetic of 5 µg/mL (≈ 13.3 µM). Work on Cc1ccccc1S(=O)(=O)Cc1ccc(C(=O)NC2CC2)o1 yielded a solubility kinetic of over 47.9 µg/mL. Work on S=c1sc2c(Cl)ncnc2n1-c1ccccc1 yielded a solubility kinetic of 8.3 µg/mL (≈ 29.7 µM). Compound Cc1ccc(SC(C)C(=O)N2CCC(C(N)=O)CC2)cc1 (stereo not given) has a solubility kinetic of 30.4 µg/mL (≈ 99.2 µM). For Cl.N=c1ccccn1Cc1ccccc1, the solubility kinetic was over 33.1 µg/mL. In the case of O=C(Nc1ccncc1)Nc1ccc(Cl)cc1, the solubility kinetic is reported as 9.8 µg/mL (≈ 39.6 µM). N#C/C(=C/c1ccc(F)cc1)S(=O)(=O)c1ccccc1 showed a solubility kinetic of 37.5 µg/mL (≈ 131 µM). In the case of CC(Nc1nc(C(F)(F)F)nc2ccccc12)c1cccs1 (stereo not given), the solubility kinetic is reported as 6.5 µg/mL (≈ 20.1 µM). For CCN(CC)C(=O)Cc1c(OC)ccc2cc(Br)ccc12, the solubility kinetic was 17.7 µg/mL (≈ 50.5 µM). Cc1ccc(S(=O)(=O)N2CCN(Cc3ccccc3)CC2)cc1 showed a solubility kinetic of 5 µg/mL (≈ 15.1 µM). With O=C(c1cc2c(s1)-c1ccccc1S(=O)(=O)C2)N1CCCC1 the solubility kinetic was 47.6 µg/mL (≈ 143 µM). O=C1NC(c2ccc(Cl)cc2)=COc2ccccc21 showed a solubility kinetic of 1.1 µg/mL (≈ 4.05 µM). NC(=O)C[n+]1cccc(/C=N/O)c1.[Cl-] gave a solubility kinetic of over 32.3 µg/mL. Cc1ccc(C)c(Nc2ccc3nonc3c2[N+](=O)[O-])c1 gave a solubility kinetic of 2 µg/mL (≈ 7.04 µM). Compound O=C(NCCNC(=O)c1ccccn1)c1ccccc1 has a solubility kinetic of 36 µg/mL (≈ 134 µM). For CC1(C)CC2CC(C)(CN2S(=O)(=O)c2ccccc2[N+](=O)[O-])C1 (stereo not given), the solubility kinetic was 2.4 µg/mL (≈ 7.09 µM). O=C(O)CCSC(=S)N1CCOCC1 gave a solubility kinetic of 29.3 µg/mL (≈ 125 µM). In the case of O=C(/C=C/c1cccc(C(F)(F)F)c1)N1CCN(c2ccccn2)CC1, the solubility kinetic is reported as 4 µg/mL (≈ 11.1 µM). For NC(=S)NC1CC2C=CC1C2 (stereo not given), the solubility kinetic was over 25.2 µg/mL. COc1ccc(NC(=S)NC(=O)c2ccccc2)cn1 gave a solubility kinetic of 35.8 µg/mL (≈ 125 µM). In the case of CN(C)C(=S)c1ccccc1, the solubility kinetic is reported as 21.4 µg/mL (≈ 129 µM). Cc1ccc(S(=O)(=O)Nc2c(C)cc(C)nc2Cl)cc1 showed a solubility kinetic of over 46.6 µg/mL. With COc1ccc(NC(=O)NCCCCc2ccccc2)cc1 the solubility kinetic was 2.1 µg/mL (≈ 7.04 µM). COc1cc2nc(Cl)nc(NCCO)c2cc1OC gave a solubility kinetic of 24.7 µg/mL (≈ 87.1 µM). Work on O=C(CN1CCc2ccccc2C1)Nc1ccc(F)cc1 yielded a solubility kinetic of 39.2 µg/mL (≈ 138 µM).

Source: PubChem BioAssay AID1996
